Measurements from ChEMBL document CHEMBL1201862, “PubChem BioAssay data set” (2004).
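Cultured in 96-well plates, cells were exposed to test compound for 48 hours across five concentrations. Abbreviation: GI50, concentration required for 50% inhibition of growth.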 Active and inactive are the calls of the source. Cut-off read from the data, not from the text of the source: active = GI50 up to about 1.1 µM and inactive = higher.

What was measured:
Test in all cases: NCI tumour cell line growth inhibition, 48 h
NCI-H23 = system: NCI-H23
NCI-H522 = system: NCI-H522
MOLT-4 = system: MOLT-4
PC-3 = system: PC-3
NCI/ADR-RES = system: NCI/ADR-RES
HOP-92 = system: HOP-92
UO-31 = system: UO-31
SF-295 = system: SF-295
CCRF-CEM = system: CCRF-CEM
M14 = system: M14
SK-MEL-28 = system: SK-MEL-28
A549 = system: A549
OVCAR-3 = system: OVCAR-3
UACC-257 = system: UACC-257
COLO 205 = system: COLO 205
RXF 393 = system: RXF 393
OVCAR-8 = system: OVCAR-8
SK-OV-3 = system: SK-OV-3
MDA-MB-231 = system: MDA-MB-231
SNB-19 = system: SNB-19

| SMILES | GI50 (NCI-H23) | GI50 (NCI-H522) | GI50 (MOLT-4) | GI50 (PC-3) | GI50 (NCI/ADR-RES) | GI50 (HOP-92) | GI50 (UO-31) | GI50 (SF-295) | GI50 (CCRF-CEM) | GI50 (M14) | GI50 (SK-MEL-28) | GI50 (A549) | GI50 (OVCAR-3) | GI50 (UACC-257) | GI50 (COLO 205) | GI50 (RXF 393) | GI50 (OVCAR-8) | GI50 (SK-OV-3) | GI50 (MDA-MB-231) | GI50 (SNB-19) |
| --- | --- | --- | --- | --- | --- | --- | --- | --- | --- | --- | --- | --- | --- | --- | --- | --- | --- | --- | --- | --- |
| NNS(=O)(=O)c1cc(C(=O)O)cc(C(=O)O)c1 | > 100 µM (inactive) | > 100 µM (inactive) | > 100 µM (inactive) | > 100 µM (inactive) | > 100 µM (inactive) | > 100 µM (inactive) | > 100 µM (inactive) | > 100 µM (inactive) | 28.5 µM (inactive) | > 100 µM (inactive) | > 100 µM (inactive) | > 100 µM (inactive) | > 100 µM (inactive) | > 100 µM (inactive) | > 100 µM (inactive) | > 100 µM (inactive) | > 100 µM (inactive) | > 100 µM (inactive) | > 100 µM (inactive) | > 100 µM (inactive) |
| Clc1ccc(OCC2NC3C=CC32)cn1 (centres undefined) | > 100 µM (inactive) | > 100 µM (inactive) | 56 µM (inactive) | > 100 µM (inactive) | > 100 µM (inactive) | 67 µM (inactive) | 44.7 µM (inactive) | > 100 µM (inactive) | 56.9 µM (inactive) | > 100 µM (inactive) | > 100 µM (inactive) | > 100 µM (inactive) | > 100 µM (inactive) | > 100 µM (inactive) | > 100 µM (inactive) | > 100 µM (inactive) | > 100 µM (inactive) | > 100 µM (inactive) | > 100 µM (inactive) | > 100 µM (inactive) |
| COc1ccc(C(=O)NCCN(C)C)c2nc3ccccc3cc12 | 0.366 µM (active) | 0.817 µM (active) | 0.0411 µM (active) | 1.38 µM (inactive) | 1.67 µM (inactive) | 1.32 µM (inactive) | 0.532 µM (active) | 0.653 µM (active) | 0.208 µM (active) | 1.33 µM (inactive) | 2 µM (inactive) | 0.0962 µM (active) | 2 µM (inactive) | 1.58 µM (inactive) | 1.2 µM (inactive) | 2.15 µM (inactive) | 0.655 µM (active) | 1.56 µM (inactive) | 2.12 µM (inactive) | 0.741 µM (active) |
| COc1ccc(/C(=N\Nc2ccccn2)c2ccccn2)cc1 | 0.0272 µM (active) | < 0.01 µM (active) | < 0.01 µM (active) | 0.0306 µM (active) | < 0.01 µM (active) | < 0.045 µM (active) | 0.0405 µM (active) | 0.301 µM (active) | < 0.01 µM (active) | < 0.01 µM (active) | 0.336 µM (active) | 0.149 µM (active) | < 0.01 µM (active) | < 0.01 µM (active) | < 0.01 µM (active) | 2.59 µM (inactive) | < 0.01 µM (active) | 0.107 µM (active) | < 0.0193 µM (active) | 0.544 µM (active) |
| COC(=O)C1=C(OC(=O)/C(=C/c2ccc(Cl)cc2)c2ccc(Cl)cc2)C(C(=O)OC)[C@@]2(O)[C@@H](C(=O)OC)[C@H](C)C[C@@H]1[C@@H]2C(=O)OC (some centres undefined) | 25.2 µM (inactive) | 3.87 µM (inactive) | 0.328 µM (active) | 12.6 µM (inactive) | 17.2 µM (inactive) | 6.67 µM (inactive) | > 100 µM (inactive) | 3.22 µM (inactive) | > 37.2 µM (inactive) | > 100 µM (inactive) | > 100 µM (inactive) | 11.5 µM (inactive) | > 45.8 µM (inactive) | > 83.6 µM (inactive) | > 76.4 µM (inactive) | > 61.4 µM (inactive) | 25.1 µM (inactive) | > 100 µM (inactive) | > 71.9 µM (inactive) | 16.4 µM (inactive) |
| C1CSC2=C(S1)SC1=C(S2)SC(=C2SC3=C(SC4=C(SCCS4)S3)S2)S1 | > 100 µM (inactive) | > 100 µM (inactive) | > 100 µM (inactive) | > 100 µM (inactive) | > 100 µM (inactive) | > 100 µM (inactive) | > 100 µM (inactive) | > 100 µM (inactive) | > 100 µM (inactive) | > 100 µM (inactive) | > 100 µM (inactive) | > 100 µM (inactive) | > 100 µM (inactive) | > 100 µM (inactive) | > 100 µM (inactive) | > 100 µM (inactive) | > 100 µM (inactive) | > 100 µM (inactive) | > 100 µM (inactive) | > 100 µM (inactive) |
| CCOC(=O)N/N=C(/N)c1cccc([N+](=O)[O-])c1 | > 100 µM (inactive) | > 100 µM (inactive) | > 100 µM (inactive) | > 100 µM (inactive) | > 100 µM (inactive) | > 100 µM (inactive) | > 100 µM (inactive) | > 100 µM (inactive) | > 100 µM (inactive) | > 100 µM (inactive) | > 100 µM (inactive) | > 100 µM (inactive) | > 100 µM (inactive) | > 100 µM (inactive) | > 100 µM (inactive) | > 100 µM (inactive) | > 100 µM (inactive) | > 100 µM (inactive) | > 100 µM (inactive) | > 100 µM (inactive) |
| O=C(CC(=O)Nc1ccccc1)NNC(c1cc(/N=N/c2ccc(Br)cc2)ccc1O)P(O)O (centres undefined) | 3.28 µM (inactive) | 3.48 µM (inactive) | 0.321 µM (active) | 0.975 µM (active) | 1.06 µM (active) | 4.18 µM (inactive) | 2.52 µM (inactive) | 3.64 µM (inactive) | 0.322 µM (active) | 0.631 µM (active) | 4.45 µM (inactive) | 6.41 µM (inactive) | 0.333 µM (active) | 4.89 µM (inactive) | 4.49 µM (inactive) | > 10 µM (inactive) | 0.759 µM (active) | 5.48 µM (inactive) | 2.73 µM (inactive) | > 10 µM (inactive) |
| C/C(=N\N)C(CN1CCCCC1)C(c1ccccc1)c1c(O)c2ccccc2oc1=O (centres undefined) | > 100 µM (inactive) | > 100 µM (inactive) | > 69.2 µM (inactive) | > 100 µM (inactive) | > 100 µM (inactive) | 67 µM (inactive) | > 67.3 µM (inactive) | > 100 µM (inactive) | > 100 µM (inactive) | > 100 µM (inactive) | > 100 µM (inactive) | > 100 µM (inactive) | > 100 µM (inactive) | > 100 µM (inactive) | > 100 µM (inactive) | > 54.1 µM (inactive) | > 100 µM (inactive) | > 100 µM (inactive) | > 100 µM (inactive) | > 100 µM (inactive) |
| O=C(Oc1ccccn1)c1cc2cc(CCl)ccc2oc1=O | 21.6 µM (inactive) | 15.2 µM (inactive) | 31.2 µM (inactive) | 18.5 µM (inactive) | 27 µM (inactive) | 20.7 µM (inactive) | 33.7 µM (inactive) | 68.1 µM (inactive) | 30.4 µM (inactive) | > 100 µM (inactive) | 49 µM (inactive) | > 100 µM (inactive) | 19.4 µM (inactive) | 77.1 µM (inactive) | 51.2 µM (inactive) | 19 µM (inactive) | 35.6 µM (inactive) | > 100 µM (inactive) | 19.7 µM (inactive) | 27 µM (inactive) |
| O=c1nc(N2CCN(c3ccccc3)CC2)ccn1C1OC(CO)C(O)C1O (centres undefined) | 55.3 µM (inactive) | 52.8 µM (inactive) | 49.7 µM (inactive) | 74.5 µM (inactive) | > 100 µM (inactive) | 24.2 µM (inactive) | > 100 µM (inactive) | 61.5 µM (inactive) | 35.6 µM (inactive) | 37.5 µM (inactive) | > 100 µM (inactive) | > 100 µM (inactive) | 56.4 µM (inactive) | 45.1 µM (inactive) | 97.3 µM (inactive) | > 100 µM (inactive) | 55.7 µM (inactive) | > 100 µM (inactive) | > 100 µM (inactive) | > 100 µM (inactive) |
| COc1ccc2oc(S(=O)(=O)N3CC(CCl)c4ccc([N+](=O)[O-])cc43)cc2c1 (centres undefined) | 0.36 µM (active) | 0.0292 µM (active) | 0.223 µM (active) | 0.116 µM (active) | 0.0596 µM (active) | 0.533 µM (active) | 0.783 µM (active) | 0.0374 µM (active) | 0.45 µM (active) | 0.122 µM (active) | – | 0.274 µM (active) | 0.108 µM (active) | 0.073 µM (active) | 0.105 µM (active) | 0.0345 µM (active) | 0.22 µM (active) | 0.105 µM (active) | 0.29 µM (active) | 0.233 µM (active) |
| NC(CSC(=O)c1ccccc1)C(=O)O (centres undefined) | > 100 µM (inactive) | > 100 µM (inactive) | > 100 µM (inactive) | > 100 µM (inactive) | > 100 µM (inactive) | > 100 µM (inactive) | > 100 µM (inactive) | > 100 µM (inactive) | > 100 µM (inactive) | > 100 µM (inactive) | > 100 µM (inactive) | > 100 µM (inactive) | > 100 µM (inactive) | > 100 µM (inactive) | > 100 µM (inactive) | > 100 µM (inactive) | > 100 µM (inactive) | > 100 µM (inactive) | > 100 µM (inactive) | > 100 µM (inactive) |
| CCCCCCCCCc1cc(-c2ccc(C=O)s2)sc1-c1ccc(C=O)s1 | 20.1 µM (inactive) | 15.9 µM (inactive) | 1.12 µM (inactive) | 37.8 µM (inactive) | 19.6 µM (inactive) | 27.9 µM (inactive) | 17.7 µM (inactive) | 32.7 µM (inactive) | 2.23 µM (inactive) | 8.47 µM (inactive) | 33.7 µM (inactive) | 53.1 µM (inactive) | 16.7 µM (inactive) | 13.6 µM (inactive) | 20 µM (inactive) | 8.81 µM (inactive) | 10.4 µM (inactive) | 29 µM (inactive) | 26.2 µM (inactive) | 22.6 µM (inactive) |
